Reference: patent US11046672B2, “Indolinones compounds and their use in the treatment of fibrotic diseases” (RESPIVERT LIMITED, priority 2015, dated 2021)
“And” between values parts separate entries of the source, which are not always exact repeats. Identical values can stand only once. Like-named read-outs stand apart in the source and are kept apart here.

Assays:
MRC5 cells = test: Cell viability assay in MRC5 cells (MTT)
PDGFRβ [1] = molecular target: T1, PDGFRβ (Homo sapiens (Human), UniProt P09619); settings: read-out: Ki PDGFRβ; mean, n = 2 unless otherwise indicated
[2] = Pharmacokinetic measurements in mice (intravenous and intra-nasal dosing); format: in vivo; settings: mouse; for concentration at 0.1 h / concentration at 1.5 h / concentration at 24 h: lung, read-out: lung concentration (nM) at time (h)
[3] = Pharmacokinetic measurements in rats (intravenous and intra-tracheal dosing); format: in vivo; settings: rat
PDGFRβ [4] = molecular target: T1, PDGFRβ; test: PDGF-BB induced phosphorylation of PDGFRβ in fibroblasts (MRC5 cells, HTRF); format: cell-based; settings: MRC5 cells; n = 1 unless otherwise indicated; read-out: PDGFBB-induced PDGFRβ phosphorylation in MRC5 cells (IC50)
PAMPA permeability assay = format: in vitro ADME; settings: for Papp at 5 h, 10 μM: pH 7, pH 7, 10 μM; for recovery at 5 hr, 10 μM: pH 7, PAMPA
[5] = PAMPA, donor and acceptor compartments

T1 sequence (P09619 33-1106): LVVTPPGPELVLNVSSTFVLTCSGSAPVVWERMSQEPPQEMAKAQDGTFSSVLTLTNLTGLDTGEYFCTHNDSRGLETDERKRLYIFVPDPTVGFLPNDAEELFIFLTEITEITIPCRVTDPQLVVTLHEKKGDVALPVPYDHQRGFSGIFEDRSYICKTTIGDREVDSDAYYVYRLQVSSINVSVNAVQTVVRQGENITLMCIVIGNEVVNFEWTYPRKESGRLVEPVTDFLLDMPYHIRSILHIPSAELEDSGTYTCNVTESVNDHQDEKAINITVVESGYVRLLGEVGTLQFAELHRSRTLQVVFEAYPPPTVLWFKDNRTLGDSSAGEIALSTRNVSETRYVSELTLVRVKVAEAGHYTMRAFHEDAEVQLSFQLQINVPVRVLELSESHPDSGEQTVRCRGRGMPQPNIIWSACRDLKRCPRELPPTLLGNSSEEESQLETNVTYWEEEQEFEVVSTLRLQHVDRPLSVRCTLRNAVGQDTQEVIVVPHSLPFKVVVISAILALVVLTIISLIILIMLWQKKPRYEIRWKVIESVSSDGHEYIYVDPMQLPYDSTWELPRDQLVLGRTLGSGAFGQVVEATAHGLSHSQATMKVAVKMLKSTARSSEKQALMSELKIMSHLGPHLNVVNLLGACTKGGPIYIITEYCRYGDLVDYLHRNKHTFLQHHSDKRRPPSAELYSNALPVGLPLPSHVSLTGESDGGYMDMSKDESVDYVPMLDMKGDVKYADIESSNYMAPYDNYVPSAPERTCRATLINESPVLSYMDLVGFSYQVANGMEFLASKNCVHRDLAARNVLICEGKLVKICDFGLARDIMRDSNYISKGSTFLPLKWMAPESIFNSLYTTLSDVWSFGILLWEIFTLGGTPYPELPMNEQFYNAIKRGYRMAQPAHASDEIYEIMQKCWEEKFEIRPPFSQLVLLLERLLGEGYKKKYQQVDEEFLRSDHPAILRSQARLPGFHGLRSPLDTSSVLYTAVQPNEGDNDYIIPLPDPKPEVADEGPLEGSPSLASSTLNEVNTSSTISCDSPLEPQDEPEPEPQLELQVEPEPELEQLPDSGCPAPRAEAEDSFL

COC(=O)c1ccc2c(c1)NC(=O)/C2=C(\Nc1ccc(C(=O)NOCCN2CCOCC2)c(C)c1)c1ccccc1 [Example 16]
Cell viability at 100 nM (%) (MRC5 cells): 79%
Cell viability at 300 nM (%) (MRC5 cells): 59.9%
Cell viability at 1000 nM (%) (MRC5 cells): 51.9%
Ki (PDGFRβ [1]): 14.1 nM

COC(=O)c1ccc2c(c1)NC(=O)/C2=C(\Nc1ccc(N(C)C(=O)CN2CCN(C)CC2)cc1)c1ccccc1 [Nintedanib, reference compound]
Cell viability at 100 nM (%) (MRC5 cells): 104.6%
Cell viability at 300 nM (%) (MRC5 cells): 105.6%
Cell viability at 1000 nM (%) (MRC5 cells): 92.7%
concentration at 0.1 h ([2]; male, C57BL/6J, iv, i.v. dosing, 0.1 h, mean): 2380 nM
concentration at 1.5 h ([2]; male, C57BL/6J, iv, i.v. dosing, 1.5 h, mean): 1340 nM
concentration at 24 h ([2]; male, C57BL/6J, iv, i.v. dosing, mean): 10 nM
concentration at 0.1 h ([2]; male, C57BL/6J, other: intra-nasal, i.n. dosing, 0.1 h, mean): 2760 nM
concentration at 1.5 h ([2]; male, C57BL/6J, other: intra-nasal, i.n. dosing, 1.5 h, mean): 804 nM
concentration at 24 h ([2]; male, C57BL/6J, other: intra-nasal, i.n. dosing, mean): 15 nM
clearance ([2]; male, C57BL/6J, whole blood, iv): 81 mL/min/kg
MRT ([2]; male, C57BL/6J, whole blood, iv, i.v. dosing, mean): 2 h
Vd ([2]; male, C57BL/6J, whole blood, iv, i.v. dosing, mean, read-out: Vss): 10 L/kg
half-life ([2]; male, C57BL/6J, whole blood, iv, i.v. dosing, mean, read-out: t½ (converted)): 2 h
BAL % administered dose at time (h) ([2]; i.n. dosing, 0.1 h): 0.5%
BAL % administered dose at time (h) ([2]; i.n. dosing, 1.5 h): 0.1%
BAL % administered dose at time (h) ([2]; i.v. dosing, 0.1 h): 0.3%
BAL % administered dose at time (h) ([2]; i.v. dosing, 1.5 h): 0.03%
i.t. BAV (%) ([3]; i.t. dosing (i.t. dose 0.1-0.5 per compound)): 43%
BAL % administered dose at time (h) ([3]; i.t. dosing, 0.1 h): 2%
BAL % administered dose at time (h) ([3]; i.t. dosing, 1.5 h): 1%
BAL % administered dose at time (h) ([3]; i.t. dosing, 24 h): 0.1%
BAL % administered dose at time (h) ([3]; i.v. dosing, 0.1 h): 0.06%
BAL % administered dose at time (h) ([3]; i.v. dosing, 1.5 h): 0.03%
BAL % administered dose at time (h) ([3]; i.v. dosing, 24 h): BQL

COC(=O)c1cc2c(cc1C)/C(=C(/Nc1ccc(C(=O)NOCCN3CCNC(=O)C3)cc1)c1ccccc1)C(=O)N2 [Example 70]
Cell viability at 100 nM (%) (MRC5 cells): 91.7%
Cell viability at 300 nM (%) (MRC5 cells): 99.7%
Cell viability at 1000 nM (%) (MRC5 cells): 94.0%
IC50 (PDGFRβ [4]): 9.98 nM

COC(=O)c1cc2c(cc1C)/C(=C(/Nc1ccc(C(=O)N(OC)C3CCN(C)CC3)c(C)c1)c1ccccc1)C(=O)N2 [Example 34]
Cell viability at 100 nM (%) (MRC5 cells): 114.8%
Cell viability at 300 nM (%) (MRC5 cells): 80%
Cell viability at 1000 nM (%) (MRC5 cells): 61.5%
Ki (PDGFRβ [1]): 15.8 nM
IC50 (PDGFRβ [4]): 13.4 nM

COC(=O)c1ccc2c(c1)NC(=O)/C2=C(\Nc1ccc(C(=O)NOCCN(C)C)c(F)c1)c1ccccc1 [Example 20]
Cell viability at 100 nM (%) (MRC5 cells): 75.5%
Cell viability at 300 nM (%) (MRC5 cells): 81.7%
Cell viability at 1000 nM (%) (MRC5 cells): 90.7%
Ki (PDGFRβ [1]): 11.1 nM
% Recovery (PAMPA permeability assay; [5]): 91.7% and 66.5%
Papp at 5 h, 10 μM (PAMPA permeability assay; PAMPA, 5 hr): 0.0305 ×10⁻⁶ cm/s
Mean Papp (PAMPA permeability assay; pH 7, 10 μM, 5 hr): 0.0296 10^−6 cm s^−1

COC(=O)c1ccc2c(c1)NC(=O)/C2=C(\Nc1ccc(C(=O)NOCCN(C)CCO)cc1)c1ccccc1 [Example 45]
Cell viability at 100 nM (%) (MRC5 cells): 98.9%
Cell viability at 300 nM (%) (MRC5 cells): 104.7%
Cell viability at 1000 nM (%) (MRC5 cells): 80.7%
Ki (PDGFRβ [1]): 14.1 nM
IC50 (PDGFRβ [4]): 27.2 nM

COC(=O)c1ccc2c(c1)NC(=O)/C2=C(\Nc1ccc(C(=O)N2CCO2)cc1)c1ccccc1 [Example 37]
Cell viability at 100 nM (%) (MRC5 cells): 95.2%
Cell viability at 300 nM (%) (MRC5 cells): 98.9%
Cell viability at 1000 nM (%) (MRC5 cells): 106%
Ki (PDGFRβ [1]): 244 nM
IC50 (PDGFRβ [4]): 24.1 nM

COC(=O)c1cc2c(cc1C)/C(=C(/Nc1ccc(C(=O)N(OCCN3CCNCC3)C(C)C)cc1)c1ccccc1)C(=O)N2 [Example 69]
Cell viability at 100 nM (%) (MRC5 cells): 92.5%
Cell viability at 300 nM (%) (MRC5 cells): 93.1%
Cell viability at 1000 nM (%) (MRC5 cells): 74.0%
IC50 (PDGFRβ [4]): 14.3 nM

COC(=O)c1ccc2c(c1)NC(=O)/C2=C(\Nc1ccc(C(=O)NOCCN2CCOCC2)cc1)c1ccccc1 [Example 12]
Cell viability at 100 nM (%) (MRC5 cells): 104.8%
Cell viability at 300 nM (%) (MRC5 cells): 101.7%
Cell viability at 1000 nM (%) (MRC5 cells): 79.4%
Ki (PDGFRβ [1]): 11.6 nM
recovery at 5 hr, 10 μM (PAMPA permeability assay; [5]): 41%
Papp at 5 h, 10 μM (PAMPA permeability assay; PAMPA, 5 hr): 0.564 ×10⁻⁶ cm/s

COC(=O)c1ccc2c(c1)NC(=O)/C2=C(\Nc1ccc(C(=O)N(OC)C2CCN(C)CC2)cc1)c1ccccc1 [Example 21]
Cell viability at 100 nM (%) (MRC5 cells): 95.5%
Cell viability at 300 nM (%) (MRC5 cells): 86.6%
Cell viability at 1000 nM (%) (MRC5 cells): 53%
Ki (PDGFRβ [1]): 10.2 nM
IC50 (PDGFRβ [4]): 6.79 nM

COC(=O)c1ccc2c(c1)NC(=O)/C2=C(\Nc1ccc(C(=O)NOCCN2CCC(N(C)C)CC2)cc1)c1ccccc1 [Example 47]
Cell viability at 100 nM (%) (MRC5 cells): 112%
Cell viability at 300 nM (%) (MRC5 cells): 102.4%
Cell viability at 1000 nM (%) (MRC5 cells): 93%
Ki (PDGFRβ [1]): 10.2 nM
IC50 (PDGFRβ [4]): 39 nM

CNC(=O)CN1CCN(CCONC(=O)c2ccc(N/C(=C3\C(=O)Nc4cc(C(=O)OC)ccc43)c3ccccc3)cc2)CC1 [Example 72]
IC50 (PDGFRβ [4]): 36.7 nM

COC(=O)c1ccc2c(c1)NC(=O)/C2=C(\Nc1ccc(C(=O)NOCCN2CCN(C)CC2)c(C)c1)c1ccccc1 [Example 17]
Cell viability at 100 nM (%) (MRC5 cells): 83%
Cell viability at 300 nM (%) (MRC5 cells): 90.5%
Cell viability at 1000 nM (%) (MRC5 cells): 92.5%
Ki (PDGFRβ [1]): 11.7 nM
recovery at 5 hr, 10 μM (PAMPA permeability assay; [5]): 91.9%
Papp at 5 h, 10 μM (PAMPA permeability assay; PAMPA, 5 hr): 0.0142 ×10⁻⁶ cm/s

COC(=O)c1cc2c(cc1C)/C(=C(/Nc1ccc(C(=O)NOCCN3CCC(C#N)CC3)cc1)c1ccccc1)C(=O)N2 [Example 63]
Cell viability at 100 nM (%) (MRC5 cells): 99%
Cell viability at 300 nM (%) (MRC5 cells): 116.9%
Cell viability at 1000 nM (%) (MRC5 cells): 12.1%
Ki (PDGFRβ [1]): 15.7 nM
IC50 (PDGFRβ [4]): 4.74 nM

COC(=O)c1ccc2c(c1)NC(=O)/C2=C(\Nc1ccc(C(=O)NOCCN2CCCCC2)cc1)c1ccccc1 [Example 8, (Z)-Methyl 2-oxo-3-(phenyl((4-((2-(piperidin-1-yl)ethoxy)carbamoyl)phenyl)amino)methylene)indoline-6-carboxylate]
Cell viability at 100 nM (%) (MRC5 cells): 93.4%
Cell viability at 300 nM (%) (MRC5 cells): 95.7%
Cell viability at 1000 nM (%) (MRC5 cells): 91%
Ki (PDGFRβ [1]): 27.8 nM
IC50 (PDGFRβ [4]): 21.5 nM

CNC(=O)CN1CCN(CCON(C)C(=O)c2ccc(N/C(=C3\C(=O)Nc4cc(C(=O)OC)ccc43)c3ccccc3)cc2)CC1 [Example 71]
IC50 (PDGFRβ [4]): 23.2 nM

CCN(OCCN1CCNCC1)C(=O)c1ccc(N/C(=C2\C(=O)Nc3cc(C(=O)OC)c(C)cc32)c2ccccc2)cc1 [Example 68]
IC50 (PDGFRβ [4]): 16.5 nM

COC(=O)c1ccc2c(c1)NC(=O)/C2=C(\Nc1ccc(C(=O)N(CCN(C)C)OC)cc1)c1ccccc1 [Example 23]
Cell viability at 100 nM (%) (MRC5 cells): 93.1%
Cell viability at 300 nM (%) (MRC5 cells): 85.9%
Cell viability at 1000 nM (%) (MRC5 cells): 67.9%
Ki (PDGFRβ [1]): 12.2 nM
recovery at 5 hr, 10 μM (PAMPA permeability assay; [5]): 51.8%
Papp at 5 h, 10 μM (PAMPA permeability assay; PAMPA, 5 hr): 20 ×10⁻⁶ cm/s

COC(=O)c1ccc2c(c1)NC(=O)/C2=C(\Nc1ccc(C(=O)N(C)OCCN2CCN(C)CC2)cc1)c1ccccc1 [Example 14]
Cell viability at 100 nM (%) (MRC5 cells): 110.8%
Cell viability at 300 nM (%) (MRC5 cells): 96.9%
Cell viability at 1000 nM (%) (MRC5 cells): 87.5%
Ki (PDGFRβ [1]): 11.1 nM
recovery at 5 hr, 10 μM (PAMPA permeability assay; [5]): 57.2%
Papp at 5 h, 10 μM (PAMPA permeability assay; PAMPA, 5 hr): 0.434 ×10⁻⁶ cm/s

COC(=O)c1ccc2c(c1)NC(=O)/C2=C(\Nc1ccc(C(=O)N2CCN(C)CCO2)cc1)c1ccccc1 [Example 24]
Cell viability at 100 nM (%) (MRC5 cells): 85.4%
Cell viability at 300 nM (%) (MRC5 cells): 104.7%
Cell viability at 1000 nM (%) (MRC5 cells): 103.1%
Ki (PDGFRβ [1]): 15.5 nM
recovery at 5 hr, 10 μM (PAMPA permeability assay; [5]): 71.8%
Papp at 5 h, 10 μM (PAMPA permeability assay; PAMPA, 5 hr): 44.8 ×10⁻⁶ cm/s

COC(=O)c1ccc2c(c1)NC(=O)/C2=C(\Nc1ccc(S(=O)(=O)N(C)OC)cc1)c1ccccc1 [Example 11]
Cell viability at 100 nM (%) (MRC5 cells): 104.8%
Cell viability at 300 nM (%) (MRC5 cells): 91.5 (n = 2) %
Cell viability at 1000 nM (%) (MRC5 cells): 94.8 (n = 2) %
IC50 (PDGFRβ [4]): 15.3 nM

CNC(=O)CN1CCN(CCON(C)C(=O)c2ccc(N/C(=C3\C(=O)Nc4cc(C(=O)OC)c(C)cc43)c3ccccc3)cc2)CC1 [Example 9, (Z)-Methyl 5-methyl-3-(((4-(methyl(2-(4-(2-(methylamino)-2-oxoethyl)piperazin-1-yl)ethoxy)carbamoyl)phenyl)amino)(phenyl)methylene)-2-oxoindoline-6-carboxylate]
Cell viability at 100 nM (%) (MRC5 cells): 129.9%
Cell viability at 300 nM (%) (MRC5 cells): 96.3%
Cell viability at 1000 nM (%) (MRC5 cells): 88.6%
IC50 (PDGFRβ [4]): 8.45 nM
recovery at 5 hr, 10 μM (PAMPA permeability assay; [5]): 82.9%
Papp at 5 h, 10 μM (PAMPA permeability assay; PAMPA, 5 hr): 0.0761 ×10⁻⁶ cm/s
